Reference: patent publication US20090098226A1, “COMPOSITION FOR COSMETIC OR PHARMACEUTICAL-DERMATOLOGICAL USE” (priority 2006, published 2009)

Key:
[1] = system: COX2; assay: Test 3: COX2 expression after oxidative insult (previous test repeated, 3 hours and 24 hours); format: cell-based, human
Method: (§1) Tests on the capacity of the indicated preparations to prevent oxidative damage, induced in dermal tissue cells, were conducted on human fibroblasts which were isolated then cultivated in a suitable culture medium. Oxidative stress was induced by adding a mixture of 40 mM xanthine and 2 mM hypoxanthine to the culture medium, a mixture with known ability to induce formation of Reactive Oxygen Species (ROS), agents which cause cell damage up to necrosis. The preparations under examination could be added, or not, to the broth at the same time as the xanthine/hypoxanthine mixture. The contact time between the xanthine/hypoxanthine mixture and the preparations was 2 hours, at the end of which the cells were transplanted into a fresh culture medium, i.e. containing neither the stress-inducing mixture nor the substance, then allowed to quiesce for periods of 3 or 24 hours. At the end of the stated period, gene expression of the prostaglandin G/H synthase and cyclooxygenase2 (COX2) enzyme was detected which is indicative of the inflammatory state induced in cells by oxidative stress.

[2] = system: COX2; assay: Test 2: COX2 expression in human fibroblasts after xanthine/hypoxanthine oxidative stress; format: cell-based; settings: 24 hours after oxidative stress, insulted human fibroblasts
Method: as §1
Expression of COX2 (normalized fluorescence units vs housekeeping gene 18s rRNA) 24 hours after oxidative stress, in “insulted” cells in the presence of curcumin, curcumin complexed with Zn and FDP used separately, and in the presence of the ternary system.

## COc1cc(/C=C/C(=O)CC(=O)/C=C/c2ccc(O)c(OC)c2)ccc1O [curcumin, Curcumin]
[1]; 3 μM, 3 hours
  COX2 expression after oxidative insult: 5.76 normalized fluorescence units vs housekeeping gene 18s rRNA
[1]; 3 μM, 24 hours
  COX2 expression after oxidative insult: 5.00 normalized fluorescence units vs housekeeping gene 18s rRNA
[1]; 6 μM, 3 hours
  COX2 expression after oxidative insult: 5.45 normalized fluorescence units vs housekeeping gene 18s rRNA
[1]; 6 μM, 24 hours
  COX2 expression after oxidative insult: 4.90 normalized fluorescence units vs housekeeping gene 18s rRNA
[1]; 9 μM, 3 hours
  COX2 expression after oxidative insult: 5.10 normalized fluorescence units vs housekeeping gene 18s rRNA
[1]; 9 μM, 24 hours
  COX2 expression after oxidative insult: 4.78 normalized fluorescence units vs housekeeping gene 18s rRNA
[2]; 3 μM
  Expression of COX2: 5.00 normalized fluorescence units vs housekeeping gene 18s rRNA
[2]; 6 μM
  Expression of COX2: 4.90 normalized fluorescence units vs housekeeping gene 18s rRNA

## C[C@H]1[C@H](C)CC[C@]2(C)CC[C@]3(C)C(=CC[C@@H]4[C@@]5(C)CC[C@@H](O)[C@](C)(C(=O)O)[C@@H]5CC[C@]43C)[C@H]12 [boswellic acid]
[1]; 100 μM, 3 hours
  COX2 expression after oxidative insult: 7.80 normalized fluorescence units vs housekeeping gene 18s rRNA
[1]; 100 μM, 24 hours
  COX2 expression after oxidative insult: 8.00 normalized fluorescence units vs housekeeping gene 18s rRNA
[1]; 300 μM, 3 hours
  COX2 expression after oxidative insult: 8.10 normalized fluorescence units vs housekeeping gene 18s rRNA
[1]; 300 μM, 24 hours
  COX2 expression after oxidative insult: 8.90 normalized fluorescence units vs housekeeping gene 18s rRNA

## O=P(O)(O)OC[C@H]1O[C@@](O)(COP(=O)(O)O)[C@@H](O)[C@@H]1O [FDP, Fructose 1-6 diphosphate]
[1]; 5 mM, 3 hours
  COX2 expression after oxidative insult: 7.87 normalized fluorescence units vs housekeeping gene 18s rRNA
[1]; 5 mM, 24 hours
  COX2 expression after oxidative insult: 7.14 normalized fluorescence units vs housekeeping gene 18s rRNA
[1]; 10 mM, 3 hours
  COX2 expression after oxidative insult: 6.90 normalized fluorescence units vs housekeeping gene 18s rRNA
[1]; 10 mM, 24 hours
  COX2 expression after oxidative insult: 6.45 normalized fluorescence units vs housekeeping gene 18s rRNA
[2]; 5 mM
  Expression of COX2: 7.14 normalized fluorescence units vs housekeeping gene 18s rRNA
